The values that follow come from patent US10100064B2, “Purine inhibitors of human phosphatidylinositol 3-kinase delta” (Merck Sharp & Dohme Corp., priority 2014, dated 2018).

One test has as its target T1, PI3Kdelta (Homo sapiens, UniProt O00329).
T1 construct: purchased Upstate; Millipore 14-604
The experiment in a line: HTRF PI3K biochemical assay, delta isoform. The note with it: 0.3 nM enzyme, 100 uM ATP, 5 uM PIP2, form screened (Neutral or TFA salt) given per compound. From the text:
(§1) HTRF PI3K Biochemical Assay to Measure Intrinsic Potency of Compound Inhibitors
(§2) The PI3-Kinase biochemical assays were developed to measure the intrinsic potency and compound dependent inhibition of the alpha, beta, delta, and gamma PI3K isoform enzymes. This assay was developed and further optimized from a kit produced by Upstate (Millipore catalog #33-047) and has been configured for HTS and SAR screening. Briefly, this procedure exploits the exquisite specificity and high affinity binding of […] phosphatidyl(3,4,5)triphosphate (PIP3) to the GRP1 pleckstrin homology (PH) domain to generate the signal. In the absence of PIP3, an HTRF (Homogeneous Time-Resolved Fluorescence energy transfer) complex is formed consisting of europium (Eu)-labeled anti-GST, GSTtagged GRP1-PH domain, biotin-PIP3 and streptavidin conjugated APC. The native PIP3 produced by PI3-Kinase activity disrupts in a competitive manner the biotin-PIP3 from the PH domain, resulting in the loss of energy transfer (HTRF complex) and a decrease in the signal. The format of this assay is the same for all 4 isoforms of PI3K; the differences lie in the concentration of enzyme used to achieve robust assay window. The alpha, beta, and delta assays are run at 0.5, 1, and 0.3 nM enzymes and the gamma assay is run at 5 nM enzyme. The ATP concentration is 100 uM in the alpha, beta, and delta assays and 50 uM ATP in the gamma assay. All reactions are run at 5 uM PIP2.
(§3) Compounds are serially diluted (3-fold in 100% DMSO) across a 384-well polypropylene source plated from column 3 to column 12 and column 13 to column 22, to yield 10 concentration dose response for each test compound. Columns 1, 2, 23 and 24 contain either only DMSO or pharmacological known control inhibitor. Once titrations are made, 2.5 nL of the compounds on 384 well plates are reformatted and transferred by acoustic dispense in quadruplicates to a 1536 assay plate (Greiner) to assay across all four PI3K isoform enzymes.
(§4) The PI3-Kinase biochemical assay was optimized using the HTRF kit provided by Upstate (Millipore). The assay kit contains six reagents: 1) 4× Reaction Buffer; 2) native PIP2 (substrate); 3) Stop (EDTA); 4) Detection Mix A (Streptavidin-APC); 5) Detection Mix B (Eu-labeled Anti-GST plus GST-tagged PH-domain); 6) Detection Mix C. In addition, the following items were obtained or purchased; PI3Kinase (alpha 14-602, beta 14-603, gamma 14-558 and delta 14-604 from Upstate; Millipore), dithiothreitol (Sigma, D-5545), Adenosine-5′ triphosphate (InVitrogen, Cat#AS001A), native PIP3 (PI(3,4,5)P3, diC8, H^+, CELLSIGNALS, INC. Cat #907) DMSO (Sigma, 472301).
(§5) PI3Kinase Reaction Buffer is prepared by dilution the stock 1:4 with de-ionized water. DTT, PIP2 and Biotin-PIP3 were added to 1536 assay plate at a final concentration of 5 mM, […] 25 nM on the day of use. Enzyme addition and compound pre-incubation are initiated by the addition of 1.25 ul of PI3K (at twice its final concentration) in the 1× reaction buffer to all wells using a BioRaptor. Plates are incubated at room temperature for 15 minutes. Reactions are initiated by addition of 1.25 ul of 2× substrate solution (PIP2 and ATP in 1× reaction buffer) using BioRaptor. Plates are incubated in humidified chamber at room temperature for one hour. Reactions are quenched by addition of 0.625 uL of stop solution to all wells using the BioRaptor. The quenched reactions are then processed to detect product formation by adding 0.625 uL of Detection Solution to all wells using the BioRaptor (Detection mix C, Detection Mix A, and Detection Mix B combined together in an 18:1:1 ratio prepared 2 hours prior to use). Following a one hour incubation in the dark, the HTRF signal is measured on the Envision plate reader set for 330 nm excitation and dual emission detection at […]. […]

The target of another test is T2, PI3Kalpha (Homo sapiens, UniProt P42336).
T2 construct: purchased Upstate; Millipore 14-602
Nature of the test: HTRF PI3K biochemical assay, alpha isoform (selectivity versus delta). The note with it: relative ratio PI3K-alpha IC50 value / PI3K-delta IC50 value.
Text: as §1, §2, §3, §4, §5

T2 sequence (P42336 whole entry): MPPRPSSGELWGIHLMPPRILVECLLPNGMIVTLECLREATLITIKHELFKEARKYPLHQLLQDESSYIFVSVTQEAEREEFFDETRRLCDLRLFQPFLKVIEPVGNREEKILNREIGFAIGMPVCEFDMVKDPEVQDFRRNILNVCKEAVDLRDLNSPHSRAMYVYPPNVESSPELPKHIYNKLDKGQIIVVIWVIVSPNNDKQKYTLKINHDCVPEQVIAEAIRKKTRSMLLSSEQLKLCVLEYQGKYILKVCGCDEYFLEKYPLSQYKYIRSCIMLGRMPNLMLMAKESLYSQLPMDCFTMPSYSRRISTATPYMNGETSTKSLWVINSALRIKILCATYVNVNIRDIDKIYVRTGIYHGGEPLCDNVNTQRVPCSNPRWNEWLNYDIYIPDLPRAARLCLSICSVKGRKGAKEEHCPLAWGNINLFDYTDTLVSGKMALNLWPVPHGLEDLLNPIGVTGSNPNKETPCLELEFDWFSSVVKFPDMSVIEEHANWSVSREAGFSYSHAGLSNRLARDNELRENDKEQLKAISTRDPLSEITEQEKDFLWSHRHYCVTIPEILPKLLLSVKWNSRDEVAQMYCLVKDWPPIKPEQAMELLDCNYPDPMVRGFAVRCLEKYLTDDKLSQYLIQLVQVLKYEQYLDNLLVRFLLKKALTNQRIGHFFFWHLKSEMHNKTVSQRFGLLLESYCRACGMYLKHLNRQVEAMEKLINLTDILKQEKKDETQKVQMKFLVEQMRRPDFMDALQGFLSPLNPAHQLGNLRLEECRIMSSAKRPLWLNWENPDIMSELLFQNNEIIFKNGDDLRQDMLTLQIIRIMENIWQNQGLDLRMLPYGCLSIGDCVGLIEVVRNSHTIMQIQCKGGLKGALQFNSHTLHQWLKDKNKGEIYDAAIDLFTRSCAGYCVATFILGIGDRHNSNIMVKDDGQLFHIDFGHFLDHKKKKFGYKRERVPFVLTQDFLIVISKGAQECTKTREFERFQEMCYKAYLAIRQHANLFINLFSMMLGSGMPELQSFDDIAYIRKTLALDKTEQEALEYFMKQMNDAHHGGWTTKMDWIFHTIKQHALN
T2 sequence (P27986 whole entry partner): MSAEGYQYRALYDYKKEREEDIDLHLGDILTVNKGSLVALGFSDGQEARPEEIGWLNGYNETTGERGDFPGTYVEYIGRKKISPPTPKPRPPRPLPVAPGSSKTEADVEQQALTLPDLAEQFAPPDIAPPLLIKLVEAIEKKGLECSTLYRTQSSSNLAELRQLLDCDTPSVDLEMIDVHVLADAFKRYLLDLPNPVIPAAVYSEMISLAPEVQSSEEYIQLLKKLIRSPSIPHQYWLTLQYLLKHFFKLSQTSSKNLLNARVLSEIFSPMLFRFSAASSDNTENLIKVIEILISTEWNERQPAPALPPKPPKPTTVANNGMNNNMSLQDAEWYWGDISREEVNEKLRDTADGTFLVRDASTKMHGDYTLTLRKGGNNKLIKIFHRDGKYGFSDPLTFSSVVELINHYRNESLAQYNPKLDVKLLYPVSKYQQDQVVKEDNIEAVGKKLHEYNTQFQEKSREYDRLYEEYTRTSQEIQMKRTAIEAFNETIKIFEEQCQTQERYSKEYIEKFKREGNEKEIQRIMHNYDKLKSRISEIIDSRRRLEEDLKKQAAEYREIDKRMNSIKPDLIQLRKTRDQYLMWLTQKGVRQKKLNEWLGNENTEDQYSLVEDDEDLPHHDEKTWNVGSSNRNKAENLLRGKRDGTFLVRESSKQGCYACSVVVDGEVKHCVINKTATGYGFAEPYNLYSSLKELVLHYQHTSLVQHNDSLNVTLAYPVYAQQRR
T1 sequence (O00329 whole entry): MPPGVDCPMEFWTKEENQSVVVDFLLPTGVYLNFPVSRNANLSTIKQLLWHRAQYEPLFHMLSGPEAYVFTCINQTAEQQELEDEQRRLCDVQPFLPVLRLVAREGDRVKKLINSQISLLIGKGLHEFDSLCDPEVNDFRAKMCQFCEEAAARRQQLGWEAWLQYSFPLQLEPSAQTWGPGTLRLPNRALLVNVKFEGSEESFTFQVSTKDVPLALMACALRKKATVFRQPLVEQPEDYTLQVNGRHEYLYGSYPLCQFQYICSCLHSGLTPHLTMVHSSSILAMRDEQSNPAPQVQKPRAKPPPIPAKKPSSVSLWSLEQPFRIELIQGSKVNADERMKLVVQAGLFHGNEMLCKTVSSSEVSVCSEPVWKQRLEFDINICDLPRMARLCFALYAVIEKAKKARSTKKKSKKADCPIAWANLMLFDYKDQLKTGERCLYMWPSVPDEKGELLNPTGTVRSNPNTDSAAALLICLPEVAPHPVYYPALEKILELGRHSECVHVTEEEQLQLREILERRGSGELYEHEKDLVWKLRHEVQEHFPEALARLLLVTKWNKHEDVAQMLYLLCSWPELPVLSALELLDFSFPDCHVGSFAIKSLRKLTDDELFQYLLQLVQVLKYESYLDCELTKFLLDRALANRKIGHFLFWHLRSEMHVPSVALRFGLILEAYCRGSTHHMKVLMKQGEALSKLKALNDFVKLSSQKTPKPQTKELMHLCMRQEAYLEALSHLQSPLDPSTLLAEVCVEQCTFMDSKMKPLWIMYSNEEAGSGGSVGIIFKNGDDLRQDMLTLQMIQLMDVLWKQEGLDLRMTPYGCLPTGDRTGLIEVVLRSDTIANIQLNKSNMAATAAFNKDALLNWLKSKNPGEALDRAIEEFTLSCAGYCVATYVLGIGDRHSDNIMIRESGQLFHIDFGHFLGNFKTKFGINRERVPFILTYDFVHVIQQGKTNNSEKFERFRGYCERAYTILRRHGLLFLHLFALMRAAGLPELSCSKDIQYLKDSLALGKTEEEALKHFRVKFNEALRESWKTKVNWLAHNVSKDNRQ
T1 sequence (P27986 whole entry partner): as the sequence (P27986 whole entry partner) above

Regarding `CCOC(=O)n1nc(C(C)C)c2c1CCC(Nc1ncnc3c1nc(-c1cnc(C)nc1)n3CC)C2` (racemic) [Compound 2-17, (S and R)-ethyl 5-{[9-ethyl-8-(2-methylpyrimidin-5-yl)-9H-purin-6-yl]amino}-3-(1-methylethyl)-4,5,6,7-tetrahydro-1H-indazole-1-carboxylate], the IC50 at PI3Kdelta was found to be 2.3 nM. Moreover, on PI3Kalpha, the “Selectivity versus PI3Kalpha” value is reported as more than 10.
On to `CCn1c(-c2cnc(C)nc2)nc2c(NC3CCc4c(c(C(C)C)nn4C(=O)OC(C)C)C3)ncnc21` (racemic) [Compound 2-18, (S and R)-1-methylethyl 5-{[9-ethyl-8-(2-methylpyrimidin-5-yl)-9H-purin-6-yl]amino}-3-(1-methylethyl)-4,5,6,7-tetrahydro-1H-indazole-1-carboxylate], for which the IC50 at PI3Kdelta is less than 1 nM. Moreover, the “Selectivity versus PI3Kalpha” value at PI3Kalpha was more than 10.
In the case of `CCn1c(-c2cnc(C)nc2)nc2c(NC3CCc4c(c(C(C)C)nn4C(=O)OC(C)(C)C(F)(F)F)C3)ncnc21` (racemic) [Compound 2-20, (S and R)-2,2,2-trifluoro-1,1-dimethylethyl 5-{[9-ethyl-8-(2-methylpyrimidin-5-yl)-9H-purin-6-yl]amino}-3-(1-methylethyl)-4,5,6,7-tetrahydro-1H-indazole-1-carboxylate], the IC50 at PI3Kdelta came to 2.6 nM. For the same molecule, at PI3Kalpha, the “Selectivity versus PI3Kalpha” value is more than 10.
For `CCn1c(-c2cnc(C)nc2)nc2c(NC3CCc4c(c(C(C)C)nn4C(=O)NC(C)(C)C)C3)ncnc21` (racemic) [Compound 2-21, (S and R)-N-tert-butyl-5-{[9-ethyl-8-(2-methylpyrimidin-5-yl)-9H-purin-6-yl]amino}-3-(1-methylethyl)-4,5,6,7-tetrahydro-1H-indazole-1-carboxamide], in that order: 16 nM and more than 10.
On the same counts, the results for `CCn1c(-c2cnc(C)nc2)nc2c(NC3CCc4c(c(C(C)C)nn4-c4ccccn4)C3)ncnc21` (racemic) [Compound 2-22, (S and R)-9-ethyl-N-[3-(1-methylethyl)-1-pyridin-2-yl-4,5,6,7-tetrahydro-1H-indazol-5-yl]-8-(2-methylpyrimidin-5-yl)-9H-purin-6-amine] are 11 nM and more than 10.
For `CCn1c(-c2cnc(C)nc2)nc2c(NC3CCc4c(c(C(C)C)nn4S(C)(=O)=O)C3)ncnc21` (racemic) [Compound 2-23, (S and R)-9-ethyl-N-[3-(1-methylethyl)-1-(methylsulfonyl)-4,5,6,7-tetrahydro-1H-indazol-5-yl]-8-(2-methylpyrimidin-5-yl)-9H-purin-6-amine], in that order: less than 1 nM and more than 10.
Take `CCn1c(-c2cnc(C)nc2)nc2c(NC3Cc4cnn(Cc5ccccc5)c4C3)ncnc21` (racemic) [Compound 2-26, (S and R)-N-(1-benzyl-1,4,5,6-tetrahydrocyclopenta[c]pyrazol-5-yl)-9-ethyl-8-(2-methylpyrimidin-5-yl)-9H-purin-6-amine]: at PI3Kdelta, the IC50 turned out to be 6.1 nM. For the same molecule, the “Selectivity versus PI3Kalpha” value at PI3Kalpha is given as more than 10.
On the same counts, the results for `CCc1nn(CC)c2c1CC(Oc1ncnc3c1nc(-c1cnc(C)nc1)n3CC)CC2` (racemic) [Compound 2-27, (S and R)-6-[(1,3-diethyl-4,5,6,7-tetrahydro-1H-indazol-5-yl)oxy]-9-ethyl-8-(2-methylpyrimidin-5-yl)-9H-purine] are 25 nM and more than 10.
Regarding `CCc1cnc2n1CC(Oc1ncnc3c1nc(-c1cnc(C)nc1)n3CC)C2` (racemic) [Compound 4-5, (S and R)-9-ethyl-6-[(3-ethyl-6,7-dihydro-5H-pyrrolo[1,2-a]imidazol-6-yl)oxy]-8-(2-methylpyrimidin-5-yl)-9H-purine], the IC50 on PI3Kdelta amounted to 550 nM. In addition, at PI3Kalpha, the “Selectivity versus PI3Kalpha” value is reported as more than 10.
Consider `CCn1c(-c2cnc(C)nc2)nc2c(NC3CCc4nc(Cl)n(C5CC5)c4C3)ncnc21` (racemic) [Compound 5-12, (S and R)-N-(2-chloro-1-cyclopropyl-4,5,6,7-tetrahydro-1H-benzimidazol-6-yl)-9-ethyl-8-(2-methylpyrimidin-5-yl)-9H-purin-6-amine], for which the 50% inhibitory concentration (IC50) on PI3Kdelta was less than 1 nM. Besides, at PI3Kalpha, the “Selectivity versus PI3Kalpha” value is on record as more than 10.
On the same counts, the results for `CCn1c(-c2cnc(C)nc2)nc2c(NC3CCc4nnc(C5CC5)n4C3)ncnc21` (single isomer, unassigned) [Compound 1-1, (S or R)-N-(3-cyclopropyl-5,6,7,8-tetrahydro[1,2,4]triazolo[4,3-a]pyridin-6-yl)-9-ethyl-8-(2-methylpyrimidin-5-yl)-9H-purin-6-amine] are 4.2 nM and more than 10.
With `CCn1c(-c2cnc(C)nc2)nc2c(NC3CCc4nnc(C5CC5)n4C3)ncnc21` (single isomer, unassigned) [Compound 1-2, (S or R)-N-(3-cyclopropyl-5,6,7,8-tetrahydro[1,2,4]triazolo[4,3-a]pyridin-6-yl)-9-ethyl-8-(2-methylpyrimidin-5-yl)-9H-purin-6-amine], at PI3Kdelta, the IC50 came to 65 nM. In addition, at PI3Kalpha, the “Selectivity versus PI3Kalpha” value is reported as more than 10.
In the case of `CCn1c(-c2cnc(C)nc2)nc2c(NC3CCc4nnc(-c5ccccc5)n4C3)ncnc21` (single isomer, unassigned) [Compound 1-3, (S or R)-9-ethyl-8-(2-methylpyrimidin-5-yl)-N-[3-phenyl-5,6,7,8-tetrahydro[1,2,4]triazolo[4,3-a]pyridin-6-yl]-9H-purin-6-amine], the IC50 at PI3Kdelta was 5.9 nM. The “Selectivity versus PI3Kalpha” value on PI3Kalpha is given as more than 10.
For `CCn1c(-c2cnc(C)nc2)nc2c(NC3CCc4nnc(C(C)C)n4C3)ncnc21` (single isomer, unassigned) [Compound 1-4, (S or R)-9-ethyl-N-[3-(1-methylethyl)-5,6,7.8-tetrahydro[1,2,4]triazolo[4,3-a]pyridin-6-yl]-8-(2-methylpyrimidin-5-yl)-9H-purin-6-amine], the half-maximal inhibitory concentration (IC50) at PI3Kdelta came out at 46 nM. In addition, the “Selectivity versus PI3Kalpha” value at PI3Kalpha was more than 10.
In the case of `CCn1c(-c2cnc(C)nc2)nc2c(NC3CCc4nnc(C(C)C)n4C3)ncnc21` (single isomer, unassigned) [Compound 1-5, (S or R)-9-ethyl-N-[3-(1-methylethyl)-5,6,7,8-tetrahydro[1,2,4]triazolo[4,3-a]pyridin-6-yl]-8-(2-methylpyrimidin-5-yl)-9H-purin-6-amine], at PI3Kdelta, the 50% inhibitory concentration (IC50) was 1.1 nM. Further, the “Selectivity versus PI3Kalpha” value at PI3Kalpha is given as more than 10.
As to `CCc1nnc2n1CC(Nc1ncnc3c1nc(-c1cnc(C)nc1)n3CC)CC2` (single isomer, unassigned) [Compound 1-6, (S or R)-9-ethyl-N-[3-ethyl-5,6,7,8-tetrahydro[1,2,4]triazolo[4,3-a]pyridin-6-yl]-8-(2-methylpyrimidin-5-yl)-9H-purin-6-amine], on PI3Kdelta, the IC50 is 2 nM. The “Selectivity versus PI3Kalpha” value at PI3Kalpha is reported as more than 10.
For `CCc1nnc2n1CC(Nc1ncnc3c1nc(-c1cnc(C)nc1)n3CC)CC2` (single isomer, unassigned) [Compound 1-7, (S or R)-9-ethyl-N-[3-ethyl-5,6,7,8-tctrahydro[1,2,4]triazolo[4,3-a]pyridin-6-yl]-8-(2-methylpyrimidin-5-yl)-9H-purin-6-amine], in that order: 13 nM and more than 10.
